# Reference: EPA's ToxValDB 9.5
# System: Rattus norvegicus
# Conditions: oral, gavage
# [1] = developmental, duration: 14 days, M/F, Crl:CD(SD), generation: F1, F1: Developmental: Bone: Skeletal Malformation + F1: Developmental: Whole Body: Nursing Behavior + F1: Developmental: Whole Body: Pup Weight…
# [2] = developmental, duration: 14 days, M/F, Crl:CD(SD), generation: F1, F1: Pelvis: Pelvis, Ischium Incompletely Ossified + F1: Pelvis: Pelvis, Pubis Incompletely Ossified + F1: Skull: Interparietal, Incomplete …
# [3] = developmental, duration: 14 days, M/F, Crl:CD(SD), generation: F1, F1: Skull: Supraoccipital, Incomplete Ossification
# [4] = developmental, duration: 14 days, M/F, Sprague-Dawley, generation: F1, F1: Developmental: Pelvic Girdle: Ischium, Incomplete Ossification + F1: Developmental: Pelvic Girdle: Pubis, Incomplete Ossification + F1: …
# [5] = developmental, duration: 14 days, M/F, Sprague-Dawley, generation: F1, F1: Developmental: Pelvis: Pelvis, Ischium Incompletely Ossified + F1: Developmental: Pelvis: Pelvis, Pubis Incompletely Ossified + F1: …
# [6] = developmental, duration: 14 days, M/F, Sprague-Dawley, generation: F1, F1: Pelvic Girdle: Ischium, Incomplete Ossification + F1: Pelvic Girdle: Pubis, Incomplete Ossification + F1: Rib: Rib, Thick + F1: Rib: Rib…
# [7] = developmental, M/F, Sprague-Dawley, generation: F1, F1: Developmental: Whole Body: Lactation Index + F1: Developmental: Whole Body: Live Pups Born + F1: Developmental: Whole Body: No. of Pups …
# [8] = reproduction developmental, duration: 14 days, F, Crl:CD(SD), generation: P0, P0: Developmental: Uterus: Implantation + P0: General Toxicity: Whole Body: Necropsy Appeared Normal + P0: Reproductive: Ovary: Corpora …
# [9] = reproduction developmental, duration: 14 days, F, Crl:CD(SD), generation: P0, P0: Developmental: Uterus: Implantation + P0: Reproductive: Whole Body: Length of Gestation
# [10] = reproduction developmental, duration: 14 days, F, Crl:CD(SD), generation: P0, P0: Whole Body: Clinical Observations + P0: Whole Body: Maternal Body Weight + P0: Whole Body: Maternal Body Weight Change + P0: Whole Body…
# [11] = reproduction developmental, duration: 14 days, F, Crl:CD(SD), generation: P0, P0: Whole Body: Maternal Body Weight Change, Corrected
# [12] = reproduction developmental, duration: 14 days, F, Sprague-Dawley, generation: P0, P0: Developmental: Uterus: Implantation + P0: Developmental: Uterus: Resorptions, Early + P0: Developmental: Uterus: Resorptions, Late + P0…
# [13] = reproduction developmental, duration: 14 days, F, Sprague-Dawley, generation: P0, P0: Whole Body: Maternal Body Weight + P0: Whole Body: Maternal Body Weight Change + P0: Whole Body: Maternal Body Weight, Corrected
# [14] = reproduction developmental, duration: 14 days, M/F, Crl:CD(SD), generation: F1, F1: Whole Body: Pup Weight + F1: Whole Body: Viability Index
# [15] = reproduction developmental, duration: 70 days, F, Crl:CD(SD), generation: P0, P0: Uterus: Uterus (With Cervix) Weight, Absolute + P0: Whole Body: Clinical Observations + P0: Whole Body: Maternal Food Consumption, …
# [16] = reproduction developmental, duration: 70 days, F, Crl:CD(SD), generation: P0, P0: Uterus: Uterus (With Cervix) Weight, Relative + P0: Whole Body: Maternal Body Weight Change + P0: Whole Body: Mortality + P0: Whole Body…
# [17] = reproduction developmental, duration: 70 days, M/F, Crl:CD(SD), generation: F1, F1: Whole Body: Clinical Observations + F1: Whole Body: Lactation Index + F1: Whole Body: Pup Mortality + F1: Whole Body: Pup Weight …
# [18] = reproduction developmental, duration: 70 days, M/F, Crl:CD(SD), generation: F1, F1: Whole Body: Pup Mortality + F1: Whole Body: Pup Weight Relative to Litter
# [19] = reproduction developmental, duration: 70 days, M, Crl:CD(SD), generation: P0, P0: Whole Body: Clinical Observations + P0: Whole Body: Mortality
# [20] = reproduction developmental, duration: 70 days, M, Crl:CD(SD), generation: P0, P0: Whole Body: Terminal Body Weight, Absolute
# [21] = reproduction developmental, duration: 84 days, M, Crl:CD(SD), generation: P0, P0: Seminal Vesicle: Seminal Vesicle Weight, Absolute + P0: Seminal Vesicle: Seminal Vesicle Weight, Relative + P0: Whole Body: Clinical …
# [22] = reproduction developmental, duration: 84 days, M, Crl:CD(SD), generation: P0, P0: Whole Body: Body Weight Change + P0: Whole Body: Terminal Body Weight, Absolute
# [23] = reproduction developmental, duration: 131 days, F, Crl:CD(SD), generation: P0, P0: Uterus: Uterus Weight, Absolute + P0: Uterus: Uterus Weight, Relative + P0: Whole Body: Clinical Observations
# [24] = reproduction developmental, duration: 131 days, F, Crl:CD(SD), generation: P0, P0: Whole Body: Body Weight Change + P0: Whole Body: Body Weight, Absolute + P0: Whole Body: Mortality
# [25] = reproduction developmental, duration: 131 days, M/F, Crl:CD(SD), generation: F1, F1: Kidney: Kidney Abnormalities + F1: Whole Body: Clinical Observations + F1: Whole Body: Dams with Liveborn Pups + F1: Whole Body: …
# [26] = reproduction developmental, duration: 131 days, M/F, Crl:CD(SD), generation: F1, F1: Whole Body: Pup Weight Relative to Litter
# [27] = reproduction developmental, F, Sprague-Dawley, generation: P0, P0: Developmental: Uterus: Implantation + P0: Developmental: Whole Body: No. Male Pups per No. of Pups Sexed + P0: Endocrine: Pituitary: …
# [28] = reproduction developmental, F, Sprague-Dawley, generation: P0, P0: Developmental: Uterus: Implantation + P0: Developmental: Whole Body: No. Male Pups per No. of Pups Sexed + P0: General Toxicity: Whole …
smiles,measurement,setting,value
OCCC(F)(F)C(F)(F)C(F)(F)C(F)(F)C(F)(F)C(F)(F)F [2-(Perfluorohexyl)ethanol],LOAEL,[1],225 mg/kg-day
same,NOAEL,[1],75 mg/kg-day
same,LEL,[2],250 mg/kg-day
same,NEL,[2],125 mg/kg-day
same,NEL,"developmental, duration: 14 days, M/F, Crl:CD(SD), generation: F1, F1: Skull: Frontal, Incomplete Ossification + F1: Skull: Zygomatic Arch, Incomplete Ossification + F1: Uterus: Fetuses, Dead + F1: Uterus: …",250 mg/kg-day
same,LEL,[3],125 mg/kg-day
same,NEL,[3],25 mg/kg-day
same,LOAEL,[4],125 mg/kg-day
same,NOAEL,[4],25 mg/kg-day
same,LOAEL,[5],125 mg/kg-day
same,NOAEL,[5],25 mg/kg-day
same,LEL,[6],250 mg/kg-day
same,NEL,[6],125 mg/kg-day
same,LOAEL,[7],125 mg/kg-day
same,NOAEL,[7],25 mg/kg-day
same,LOAEL,[8],225 mg/kg-day
same,NOAEL,[8],75 mg/kg-day
same,LOAEL,[9],225 mg/kg-day
same,NOAEL,[9],75 mg/kg-day
same,NEL,"reproduction developmental, duration: 14 days, F, Crl:CD(SD), generation: P0, P0: Ovary: Corpora Lutea + P0: Uterus: Implantation + P0: Uterus: Resorptions, Early + P0: Uterus: Resorptions, Late + P0: Uterus: …",250 mg/kg-day
same,NEL,"reproduction developmental, duration: 14 days, F, Crl:CD(SD), generation: P0, P0: Ovary: Corpora Lutea + P0: Uterus: Implantation + P0: Whole Body: Length of Gestation + P0: Whole Body: Necropsy Appeared Normal + P0: …",225 mg/kg-day
same,NOAEL,"reproduction developmental, duration: 14 days, F, Crl:CD(SD), generation: P0, P0: Reproductive: Ovary: Corpora Lutea + P0: Reproductive: Whole Body: Reproductive Performance",225 mg/kg-day
same,LEL,[10],250 mg/kg-day
same,NEL,[10],125 mg/kg-day
same,LEL,[11],125 mg/kg-day
same,NEL,[11],25 mg/kg-day
same,LOAEL,[12],125 mg/kg-day
same,NOAEL,[12],25 mg/kg-day
same,NEL,"reproduction developmental, duration: 14 days, F, Sprague-Dawley, generation: P0, P0: Macroscopic Observations + P0: Ovary: Corpora Lutea + P0: Uterus: Implantation + P0: Uterus: Resorptions, Early + P0: Uterus: …",250 mg/kg-day
same,NOAEL,"reproduction developmental, duration: 14 days, F, Sprague-Dawley, generation: P0, P0: Reproductive: Ovary: Corpora Lutea + P0: Reproductive: Uterus: Uterine Weight, Gravid",250 mg/kg-day
same,LEL,[13],250 mg/kg-day
same,NEL,[13],125 mg/kg-day
same,NEL,"reproduction developmental, duration: 14 days, M/F, Crl:CD(SD), generation: F1, F1: Whole Body: Nursing Behavior + F1: Whole Body: Skeletal Malformation",225 mg/kg-day
same,LEL,[14],225 mg/kg-day
same,NEL,[14],75 mg/kg-day
same,NEL,"reproduction developmental, duration: 34 days, M, Crl:CD(SD), generation: P0, P0: Central Nervous System: Latency to mount + P0: Whole Body: Necropsy Appeared Normal",225 mg/kg-day
same,NEL,"reproduction developmental, duration: 70 days, F, Crl:CD(SD), generation: P0, P0: Lung: Lung Histopathology + P0: Mammary Gland: Mammary Gland Histopathology + P0: Ovaries: Ovary Histopathology + P0: Ovary: Ovary …",250 mg/kg-day
same,LEL,[15],125 mg/kg-day
same,NEL,[15],25 mg/kg-day
same,LEL,[16],250 mg/kg-day
same,NEL,[16],125 mg/kg-day
same,LEL,[17],250 mg/kg-day
same,NEL,[17],125 mg/kg-day
same,NEL,"reproduction developmental, duration: 70 days, M/F, Crl:CD(SD), generation: F1, F1: Whole Body: Live Pups Born + F1: Whole Body: Mean Pups Delivered + F1: Whole Body: Pup Mortality",250 mg/kg-day
same,LEL,[18],125 mg/kg-day
same,NEL,[18],25 mg/kg-day
same,NEL,"reproduction developmental, duration: 70 days, M, Crl:CD(SD), generation: P0, P0: Epididymides: Epididymides Histopathology + P0: Epididymis: Epididymis Weight, Left, Absolute + P0: Epididymis: Epididymis Weight, Left…",250 mg/kg-day
same,LEL,[19],125 mg/kg-day
same,NEL,[19],25 mg/kg-day
same,LEL,[20],250 mg/kg-day
same,NEL,[20],125 mg/kg-day
same,NEL,"reproduction developmental, duration: 84 days, M, Crl:CD(SD), generation: P0, P0: Epididymis: Epididymis Histopathology + P0: Epididymis: Epididymis Weight, Absolute + P0: Epididymis: Epididymis Weight, Relative + P0: …",250 mg/kg-day
same,LEL,[21],125 mg/kg-day
same,NEL,[21],25 mg/kg-day
same,LEL,[22],250 mg/kg-day
same,NEL,[22],125 mg/kg-day
same,NEL,"reproduction developmental, duration: 131 days, F, Crl:CD(SD), generation: P0, P0: Bladder: Urinary Bladder Histopathology + P0: Kidney: Kidney Histopathology + P0: Lung: Lung Histopathology + P0: Ovary: Ovary …",250 mg/kg-day
same,LEL,[23],125 mg/kg-day
same,NEL,[23],25 mg/kg-day
same,LEL,[24],250 mg/kg-day
same,NEL,[24],125 mg/kg-day
same,LEL,[25],250 mg/kg-day
same,NEL,[25],125 mg/kg-day
same,NEL,"reproduction developmental, duration: 131 days, M/F, Crl:CD(SD), generation: F1, F1: Whole Body: Dams with Stillborn Pups + F1: Whole Body: Live Pups Born + F1: Whole Body: Surviving Pups Per Litter",250 mg/kg-day
same,LEL,[26],125 mg/kg-day
same,NEL,[26],25 mg/kg-day
same,LOAEL,[27],125 mg/kg-day
same,NOAEL,[27],25 mg/kg-day
same,LOAEL,[28],125 mg/kg-day
same,NOAEL,[28],25 mg/kg-day
same,NOAEL,"reproduction developmental, F, Sprague-Dawley, generation: P0, P0: Endocrine: Pituitary: Pituitary Gland Histopathology + P0: Endocrine: Pituitary: Pituitary Gland Weight, Absolute + P0: Endocrine: …",250 mg/kg-day
same,LOAEL,"reproduction developmental, M/F, Crl:CD(SD), generation: P0, P0: Reproductive: Whole Body: Gestation Index",125 mg/kg-day
